Data published in patent US20080045560A1, “Pyrrolidine and related derivatives useful as PR modulators” (Wyeth, priority 2006, published 2008).

Columns and labels:
[1] = tested on: progesterone receptor (alkaline phosphatase activity in T47D cells); test: Effects of progestins and antiprogestins on alkaline phosphatase activity in T47D cells (antagonist mode); assay type: cell-based; conditions: Homo sapiens, in the presence of 1 nM progesterone, 24 h; for inhibition at 0.003 µM: at 3 nM
Protocol: (1) Effects of Progestins and Antiprogestins on Alkaline Phosphatase Activity in T47D Cells.
• PURPOSE: To identify progestins or antiprogestins by determining a compound's effect on alkaline phosphatase activity in T47D cells.
Culture medium: • DMEM:F12 (1:1) (GIBCO, BRL) supplemented with 5% (v/v) charcoal stripped fetal bovine serum (not heat-inactivated), 100 U/mL penicillin, 100 μg/mL streptomycin, and 2 mM the GlutaMax™ reagent (GIBCO, BRL).
Alkaline phosphatase assay buffer: • I. 0.1M Tris-HCl, pH 9.8, containing 0.2% the Triton® X-100 reagent • II. 0.1M Tris-HCl, pH 9.8, containing 4 mM p-nitrophenyl phosphate (Sigma).
Frozen T47D cells were thawed in a 37° C. water bath and diluted to 280,000 cells/mL in culture medium. To each well in a 96-well plate (Falcon, Becton Dickinson Labware), 180 μL of diluted cell suspension was added.
Twenty μL of reference or test compounds diluted in the culture medium was then added to each well. When testing for progestin antagonist activity, reference antiprogestins or test compounds were added in the presence of 1 nM progesterone. The cells were incubated at 37° C. in a 5% CO2/humidified atmosphere for 24 h. NOTE: For high throughput screening, one concentration of each compound was tested at 0.3 μg/mL. Based on an average molecular weight of 300 g/mol for the compounds in the library, the concentration was approximately 1 μM. Subsequently, active compounds were tested in dose response assays to determine EC50 and IC50.
At the end of treatment, the medium was removed from the plate. Fifty μL of assay buffer I was added to each well. The plates were shaken in a titer plate shaker for 15 min. Then 150 μL of assay buffer II was added to each well. Optical density measurements were taken at 5 min intervals for 30 min at a test wavelength of 405 nm.
For reference and test compounds, a dose response curve was generated for dose (X-axis) vs. the rate of enzyme reaction (slope) (Y-axis). Square root-transformed data was used for analysis of variance and nonlinear dose response curve fitting for both agonist and antagonist modes. Huber weighting was used to down-weight the effects of outliers. EC50 or IC50 values were calculated from the retransformed values. JMP software (SAS Institute, Inc.) was used for both one-way analysis of variance and non-linear dose response analysis in both single dose and dose response studies.
Progesterone and trimegestone were reference progestins and RU486 was the reference antiprogestin. All reference compounds were run in full dose response curves and the EC50 and IC50 values were calculated.

## C[C@@H]1COC(=O)N1c1nc(-c2ccc(Br)cc2)cs1 [Example 1, (4R)-3-[4-(4-Bromophenyl)-1,3-thiazol-2-yl]-4-methyl-1,3-oxazolidin-2-one]
other
  melting point: 197 to 199 °C

## CCC1(CC)COC(=O)N1c1nc(-c2ccc(C#N)cc2)cs1 [Example 2, 4-[2-(4,4-Diethyl-2-oxo-1,3-oxazolidin-3-yl)-1,3-thiazol-4-yl]benzonitrile]
other
  melting point: 145 to 147 °C

## CC1(C)COC(=O)N1c1nc(-c2cccc(C#N)c2)cs1 [Example 3, 3-[2-(4,4-dimethyl-2-oxo-1,3-oxazolidin-3-yl)-1,3-thiazol-4-yl]benzonitrile]
other
  melting point: 181 to 183 °C

## CC1(C)C=CC(=O)N1c1nc(-c2ccc(C#N)cc2)cs1 [Example 7, 4-[2-(2,2-Dimethyl-5-oxo-2,5-dihydro-1H-pyrrol-1-yl)-1,3-thiazol-4-yl]benzonitrile]
[1]
  inhibition at 0.003 µM: 60%

## CC1(C)CCC(=O)N1c1nc(-c2ccc(C#N)cc2)cs1 [Example 8, 4-[2-(2,2-Dimethyl-5-oxopyrrolidin-1-yl)-1,3-thiazol-4-yl]benzonitrile]
[1]
  inhibition at 0.003 µM: 50%

## CC1(C)CCC(=O)N1c1nc(-c2ccc(C#N)cc2)c(F)s1 [Example 9, 4-[2-(2,2-Dimethyl-5-oxopyrrolidin-1-yl)-5-fluoro-1,3-thiazol-4-yl]benzonitrile]
[1]
  IC50: 31.6 nM

## O=C1C2CCC(CC2)N1c1nc(-c2ccc(Br)cc2)cs1 [Example 10, 2-[4-(4-bromophenyl)-1,3-thiazol-2-yl]-2-azabicyclo[2.2.2]octan-3-one]
[1]
  IC50: 44.4 nM

## N#Cc1ccc(-c2csc(N3C(=O)C4CCC3CC4)n2)cc1 [Example 11, 4-[2-(3-oxo-2-azabicyclo[2.2.2]oct-2-yl)-1,3-thiazol-4-yl]benzonitrile]
[1]
  IC50: 4.8 nM
